Results published in ChEMBL document CHEMBL1145207, “Discovery of novel quinoline-based estrogen receptor ligands using peptide interaction profiling” (J Med Chem, 2005).

Key:
[1] = molecular target: T1, Estrogen receptor beta (Homo sapiens, UniProt Q92731)
[2] = molecular target: T2, Estrogen receptor (Homo sapiens) (UniProt P03372)
T2 sequence (whole entry): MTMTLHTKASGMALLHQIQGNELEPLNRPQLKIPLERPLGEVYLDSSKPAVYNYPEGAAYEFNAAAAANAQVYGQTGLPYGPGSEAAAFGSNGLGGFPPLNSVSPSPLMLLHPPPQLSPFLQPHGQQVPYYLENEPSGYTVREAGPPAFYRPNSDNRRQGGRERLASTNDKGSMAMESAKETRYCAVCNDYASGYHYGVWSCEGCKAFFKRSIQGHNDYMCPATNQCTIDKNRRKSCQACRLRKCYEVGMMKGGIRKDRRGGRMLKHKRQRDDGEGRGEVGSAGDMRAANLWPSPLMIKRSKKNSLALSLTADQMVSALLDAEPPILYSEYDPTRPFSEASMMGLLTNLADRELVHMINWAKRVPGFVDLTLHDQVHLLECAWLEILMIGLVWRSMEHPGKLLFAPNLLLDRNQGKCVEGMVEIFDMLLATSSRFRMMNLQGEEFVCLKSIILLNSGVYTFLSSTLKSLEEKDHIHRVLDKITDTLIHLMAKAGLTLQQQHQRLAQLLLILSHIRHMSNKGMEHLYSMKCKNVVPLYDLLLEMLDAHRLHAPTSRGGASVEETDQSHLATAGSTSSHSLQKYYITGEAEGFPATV
Description: Mean fluorescence intensity corrected to basal for GW-5638 selective peptide binding to human estrogen receptor alpha

[3] = molecular target: Estrogen receptor (Homo sapiens, UniProt Q92731+P03372); settings: ishikawa
[4] = molecular target: T3, Estrogen receptor (Homo sapiens, UniProt P03372)
T3 sequence (P03372 whole entry): T2 sequence (whole entry)
Description: Binding affinity for human estrogen receptor alpha

[5] = molecular target: T1, Estrogen receptor beta; test: Binding affinity for human estrogen receptor beta

T1 sequence (Q92731 whole entry): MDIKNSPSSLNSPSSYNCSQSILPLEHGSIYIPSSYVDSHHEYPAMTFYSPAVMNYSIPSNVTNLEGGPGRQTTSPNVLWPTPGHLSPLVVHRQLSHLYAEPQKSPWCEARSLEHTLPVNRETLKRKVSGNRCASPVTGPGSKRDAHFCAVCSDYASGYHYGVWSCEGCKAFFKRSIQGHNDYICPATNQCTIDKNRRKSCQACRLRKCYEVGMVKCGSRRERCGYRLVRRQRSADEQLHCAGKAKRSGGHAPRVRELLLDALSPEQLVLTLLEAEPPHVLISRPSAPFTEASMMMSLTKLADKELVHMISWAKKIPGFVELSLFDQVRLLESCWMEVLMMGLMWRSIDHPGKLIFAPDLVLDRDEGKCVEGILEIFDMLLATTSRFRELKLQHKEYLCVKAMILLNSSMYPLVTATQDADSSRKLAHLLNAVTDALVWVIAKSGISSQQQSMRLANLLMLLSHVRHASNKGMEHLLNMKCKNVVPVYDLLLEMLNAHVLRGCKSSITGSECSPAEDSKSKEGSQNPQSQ

Compound | Ki [1] [nM] | MFI [2] | Log IC50 [3] | Ki [4] [nM] | Ki [5] [nM]
O=C(O)/C=C/c1ccc(Oc2c(-c3ccccc3)c(-c3ccccc3)nc3cc(O)ccc23)cc1 | 631 | – | -5.6 | 3160 | –
CCc1nc2cc(O)ccc2c(Oc2ccc(/C=C/C(=O)N(C)C)cc2)c1-c1ccccc1 | 20 | 350 | -8.4 | 10 | –
CCc1nc2cc(O)ccc2c(Oc2ccc(/C=C/C(=O)O)cc2)c1-c1ccccc1 | – | 1380 | – | – | –
CCc1nc2cc(O)ccc2c(Oc2cccc(/C=C/C(=O)O)c2)c1-c1ccccc1 | – | – | – | 1580 | 1580
CCc1nc2cc(O)ccc2c(Oc2ccc(/C=C/C(N)=O)cc2)c1-c1ccccc1 | 25.1 | 540 | -7.1 | 15.8 | –

More lines, main results first:

Ki [1] [nM] | MFI [2] | Log IC50 [3] | Ki [4] [nM] | Compound | Ki [5] [nM]
251 | 1590 | -8.1 | 100 | CCc1nc2cc(O)ccc2c(Oc2ccc(/C=C/C(=O)O)cc2)c1-c1cccc(C(F)(F)F)c1 | –
15.8 | 710 | -7.7 | 10 | CCc1nc2cc(O)ccc2c(Oc2ccc(/C=C/C(=O)NC(C)C)cc2)c1-c1ccccc1 | –
25.1 | 390 | -8.4 | 25.1 | CCc1nc2cc(O)ccc2c(Oc2ccc(/C=C/C(=O)N3CCCCC3)cc2)c1-c1ccccc1 | –
– | 1320 | – | – | CC/C(=C(\c1ccc(O)cc1)c1ccc(/C=C/C(=O)O)cc1)c1ccccc1 | –
10 | 0 | -8.5 | 7.94 | CCc1nc2cc(O)ccc2c(Oc2ccc(OCCN(C)C)cc2)c1-c1ccccc1 | –
